Results reported in patent EP1200059B1, “SKIN CARE COMPOSITION” (UNILEVER PLC, priority 1999, dated 2001).
Entries after “also recorded” stand apart in the source; their conditions may differ. Like-named read-outs stand apart in the source and are kept apart here. Blank lines part the entries; values can stand above or below the molecule they belong to.

What was measured:
[1] = target: T1, lecithin retinol acyl transferase (LRAT) (Bos taurus, UniProt Q9BGL2); test: in vitro Microsomal Assay of retinol esterification, LRAT catalysed (retinyl laurate formation); settings: for % INHIB. LRAT: Table 5; for % INHIBITION, LRAT: Table 6A, 100µM
T1 sequence (Q9BGL2 1-230): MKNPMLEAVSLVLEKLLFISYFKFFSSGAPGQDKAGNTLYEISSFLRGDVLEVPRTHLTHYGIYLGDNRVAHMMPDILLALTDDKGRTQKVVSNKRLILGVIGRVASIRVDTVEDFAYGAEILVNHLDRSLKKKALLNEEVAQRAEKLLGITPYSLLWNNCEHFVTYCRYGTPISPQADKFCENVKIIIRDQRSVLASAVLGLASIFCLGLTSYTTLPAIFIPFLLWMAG

[2] = tested on: acyl CoA retinol transferase (ARAT); test: in vitro Microsomal Assay of retinol esterification, ARAT catalysed (retinyl palmitate formation)
[3] = tested on: LRAT and ARAT catalysed retinol esterification; test: in vitro Microsomal Assay, overall verdict on retinol esterification (LRAT and ARAT); settings: verdict on the table results
[4] = tested on: procollagen-I synthesis in human dermal fibroblasts; test: Dot blot assay for procollagen-I protein in dermal fibroblast conditioned medium; format: cell-based; settings: 24 hours, control = 100%
Method: (§1) Primary human foreskin fibroblasts at passage 2 (P2) were seeded into 12-well plates at 10000 cells/cm^2 and maintained for 24 hours in an atmosphere of 5% carbon dioxide and 4% oxygen in Dulbeccos Modified Eagles Medium (DMEM) supplemented with 10% foetal calf serum. After this time the cells were washed with serum free DMEM and then incubated in fresh serum free DMEM for a further 60 hours. The fibroblast monolayers were then washed again with serum free DMEM. Test reagents and vehicle controls were added to the cells in triplicate in a final volume of 0.4ml/well fresh serum free DMEM and incubated for a further 24 hours. This fibroblast conditioned medium was either analysed immediately or snap frozen in liquid nitrogen and stored at -70°C for future analysis. The cells were then counted and data from the dot-blot analysis subsequently standardised to cell number. […]
(§2) At the end of this time the exposed screen was scanned by a phosphorimager (Molecular Dynamics Phosphorimager SF) using ImageQuant™ software. Dot intensity was assessed by computer-assisted image analysis using the quantification tools in ImageQuant™, standardised to cell number and the effects of various test reagents on decorin and procollagen-I synthesis were determined relative to a vehicle treated control value of 100 arbitrary units. […]

[5] = tested on: decorin synthesis in human dermal fibroblasts; test: Dot blot assay for decorin protein in dermal fibroblast conditioned medium; format: cell-based; settings: 24 hours, relative to vehicle control = 100
Method: as §1, §2

% INHIB. LRAT ([1]; 10 μM): 10% | % INHIB. LRAT ([1]; 100 μM): 50% | % INHIB. ARAT ([2]; Table 5, 10 μM): 19% | % INHIB. ARAT ([2]; Table 5, 100 μM): 62%
Molecule: CCCCCCCCCCCCC/C=C/[C@@H](O)[C@H](CO)NC(C)=O [Acetyl Sphingosine]
retinol esterification inhibition (result in words) [3]: potent retinol esterification inhibitors

inhibition at 100 µM ([1]; read-out: % INHIBITION, LRAT): 0%
Molecule: CC1=CCCC(C)(C)C1/C=C/C(C)O (stereo not drawn) [Alpha ionol]

% INHIBITION, LRAT [1]: 77% | % INHIBITION, ARAT ([2]; Table 6A, 100µM): 67%
Molecule: CCC(=O)/C=C/C1C(C)=CCCC1(C)C (stereo not drawn) [Alpha methyl ionone]

inhibition at 10 µM ([1]; read-out: % INHIBITION, LRAT): 52% | inhibition at 100 µM ([1]; read-out: % INHIBITION, LRAT): 92%
Molecule: C/C=C/C(=O)C1=C(C)CCCC1(C)C [Beta damascone]

inhibition at 100 µM ([1]; read-out: % INHIBITION, LRAT): 0%
Molecule: CC1=C(/C=C/C(C)O)C(C)(C)CCC1 (stereo not drawn) [Beta ionol]

inhibition at 100 µM ([1]; read-out: % INHIBITION, LRAT): 75% | % INHIBITION, ARAT ([2]; Table 6A, 100µM): 70%
Molecule: CC1=CCC(CCC(C)CO)C1(C)C (centres unmarked) [Brahmanol]

inhibition at 100 µM ([1]; read-out: % INHIBITION, LRAT): 0% | % INHIBITION, ARAT ([2]; Table 7, 100 µM): 0%
Molecule: CC12CCC(CC1=O)C2(C)C (centres unmarked) [Camphor]

Molecule: C=C(C)C1CC=C(C)C(=O)C1 (centres unmarked) [Carvone]
inhibition at 100 µM ([1]; read-out: % INHIBITION, LRAT): 0% | % INHIBITION, ARAT ([2]; Table 7, 100 µM): 0%

Molecule: O=CC=Cc1ccccc1 [Cinnamaldehyde]
inhibition at 100 µM ([1]; read-out: % INHIBITION, LRAT): 0% | % INHIBITION, ARAT ([2]; Table 7, 100 µM): 0%

inhibition at 10 µM ([1]; read-out: % INHIBITION, LRAT): 29% | inhibition at 100 µM ([1]; read-out: % INHIBITION, LRAT): 79%
Molecule: C/C=C/C(=O)C1=C(C)C=CCC1(C)C [Damascenone]

inhibition at 10 µM ([1]; read-out: % INHIBITION, LRAT): 64% | inhibition at 100 µM ([1]; read-out: % INHIBITION, LRAT): 95%
Molecule: C/C=C/C(=O)C1C(C)C=CCC1(C)C (centres unmarked) [Delta damascone]

Molecule: CC(=O)CCC1C(C)=CCCC1(C)C (stereo not drawn) [Dihydro alpha ionone]
% INHIBITION, ARAT ([2]; Table 7, 100 µM): 13%

% INHIBITION, LRAT [1]: 49%
Molecule: CCOC(=O)C1=C(C)C=CCC1(C)C [Ethyl saffranate]

inhibition at 100 µM ([1]; read-out: % INHIBITION, LRAT): 0% | % INHIBITION, ARAT ([2]; Table 7, 100 µM): 0%
Molecule: CC12CCC(CC1)C(C)(C)O2 [Eucalyptol]

inhibition at 10 µM ([1]; read-out: % INHIB. LRAT): 10% | inhibition at 100 µM ([1]; read-out: % INHIB. LRAT): 43% | % INHIB. ARAT ([2]; Table 8, 10 µM): 20% | % INHIB. ARAT ([2]; Table 8, 100 µM): 43%
Molecule: CC(C)=CCCC(C)=CCCC(C)=CCO [Farnesol]
retinol esterification inhibition (result in words) [3]: inhibit retinol esterification

% INHIBITION, ARAT ([2]; Table 7, 100 µM): 12%
Molecule: CC12CCC(C1)C(C)(C)C2O (centres unmarked) [Fenchyl alcohol]

% INHIBITION, LRAT [1]: 38%
Molecule: CC(=O)/C(C)=C/C1C(C)=CCCC1(C)C (centres unmarked) [Gamma methyl ionone]

inhibition at 10 µM ([1]; read-out: % INHIB. LRAT): 16% | inhibition at 100 µM ([1]; read-out: % INHIB. LRAT): 77% | % INHIB. ARAT ([2]; Table 8, 10 µM): 38% | % INHIB. ARAT ([2]; Table 8, 100 µM): 81%
Molecule: CC(C)=CCC/C(C)=C/CC/C(C)=C/CC/C(C)=C/CO [Geranyl Geraniol]
retinol esterification inhibition (result in words) [3]: inhibit retinol esterification; also recorded: potent inhibitor of retinol esterification

% INHIBITION, LRAT [1]: 45%
Molecule: CC1=CCCC(C)(C)C1/C=C/C(=O)CC(C)C (centres unmarked) [Isobutyl ionone]

inhibition at 100 µM ([1]; read-out: % INHIBITION, LRAT): 16% | % INHIBITION, ARAT ([2]; Table 7, 100 µM): 18%
Molecule: CC1=CC(C)C(CO)C(C)C1 (centres unmarked) [Isocyclogeraniol]

% INHIBITION, LRAT [1]: 92% | % INHIBITION, ARAT ([2]; Table 6A, 100µM): 80%
Molecule: CC=CC(=O)C1CCC(C)(C)C=C1C (centres unmarked) [Isodamascone]

inhibition at 10 µM ([1]; read-out: % INHIB. LRAT): 11% | inhibition at 100 µM ([1]; read-out: % INHIB. LRAT): 51%
Molecule: CCCCC/C=C\C/C=C\CCCCCCCC(=O)N(CCO)CCO [Linoleamide-DEA (LODEA), Linoleamide-DEA]
retinol esterification inhibition (result in words) [3]: potent retinol esterification inhibitors

Molecule: CCCCC/C=C\C/C=C\CCCCCCCC(=O)NCCO [Linoleamide-MEA (LOMEA), Linoleamide-MEA]
retinol esterification inhibition (result in words) [3]: potent retinol esterification inhibitors

% INHIBITION, ARAT ([2]; Table 6A, 100µM): 76%
Molecule: CC(C)(O)CCCC1=CCC(C=O)CC1 (centres unmarked) [Lyral]

inhibition at 100 µM ([1]; read-out: % INHIBITION, LRAT): 0%
Molecule: CC(C)[C@@H]1CC[C@@H](C)CC1=O [Mentone]

inhibition at 100 µM ([1]; read-out: % INHIBITION, LRAT): 0% | % INHIBITION, ARAT ([2]; Table 7, 100 µM): 0%
Molecule: Cc1ccc(C(C)C)c(O)c1 [Thymol]

Molecule: CC(=O)c1cc2c(cc1C)C(C)(C)C(C)CC2(C)C (centres unmarked) [Tonalid]
inhibition at 100 µM ([1]; read-out: % INHIBITION, LRAT): 33% | % INHIBITION, ARAT ([2]; Table 6A, 100µM): 50%

Molecule: CC(=O)c1cc2c(cc1C)C(C)(C)[C@H](C)[C@H]2C(C)C [Traseolide]
% INHIBITION, ARAT ([2]; Table 6A, 100µM): 41%

inhibition at 100 µM ([1]; read-out: % INHIBITION, LRAT): 0% | % INHIBITION, ARAT ([2]; Table 7, 100 µM): 0%
Molecule: COc1cc(C=O)ccc1O [Vanillin]

inhibition at 100 µM ([1]; read-out: % INHIB. LRAT): 0% | % INHIB. ARAT ([2]; Table 5, 100 μM): 0%
Molecule: Nc1ncnc2nc[nH]c12 [adenine]

inhibition at 10 µM ([1]; read-out: % INHIBITION, LRAT): 87% | inhibition at 100 µM ([1]; read-out: % INHIBITION, LRAT): 98% | % INHIBITION, ARAT ([2]; Table 6A, 100µM): 83% | % INHIBITION, ARAT ([2]; Table 6B, 10µM): 67%
Molecule: CC=CC(=O)C1C(C)=CCCC1(C)C (stereo not drawn) [alpha damascone]

inhibition at 100 µM ([1]; read-out: % INHIB. LRAT): 0% | % INHIB. ARAT ([2]; Table 5, 100 μM): 0%
Molecule: O=C(NCO)N(CO)C1(CO)C(=O)NC(=O)N1CO (centres unmarked) [diazolidinyl urea]

Molecule: Cc1ncc(C[n+]2csc(CCO)c2C)c(N)n1 [thiamine]
inhibition at 100 µM ([1]; read-out: % INHIB. LRAT): 0% | % INHIB. ARAT ([2]; Table 5, 100 μM): 0%

Molecule: CC1=C(/C=C/C(C)=C/C=C/C(C)=C/C(=O)O)C(C)(C)CCC1 [trans Retinoic acid, reference compound]
Procollagen 1 ([4]; 0.01 µM trans Retinoic acid): 102.8%

Molecule: N[C@@H](Cc1c[nH]c2ccccc12)C(=O)O [tryptophan]
inhibition at 100 µM ([1]; read-out: % INHIB. LRAT): 0% | % INHIB. ARAT ([2]; Table 5, 100 μM): 0%

inhibition at 100 µM ([1]; read-out: % INHIB. LRAT): 0% | % INHIB. ARAT ([2]; Table 5, 100 μM): 0%
Molecule: O=c1cc[nH]c(=O)[nH]1 [uracil]

Molecule: Ceramide 6
Decorin ([5]; 0.01 µM Ceramide 6): 101.2%

% INHIBITION, LRAT [1]: 12% | % INHIBITION, ARAT ([2]; Table 6A, 100µM): 23%
Molecule: Sandalone

% INHIBITION, LRAT [1]: 43% | % INHIBITION, ARAT ([2]; Table 6A, 100µM): 15%
Molecule: Sandanol

Molecule: conjugated linoleic acid [CLA]
Procollagen 1 ([4]; 0.1 µM CLA): 78.9% | Decorin ([5]; 0.1 µM CLA): 96.8%

% INHIB. LRAT ([1]; 100 μM): 0%
Molecule: disodium cocamphodiacetate
